# From article PMC10997755, “Discovery of a small-molecule inhibitor that traps Polθ on DNA and synergizes with PARP inhibitors” (Nature Communications, 2024)
# Columns and labels:
# Polθ-pol = target: T1, Polθ-pol (Homo sapiens, UniProt O75417); test: Cy5 fluorescence Polθ-pol DNA synthesis (strand displacement) IC50 assay; type: biochemical; details: Polθ-pol DNA synthesis, Cy5 fluorescence
# T1 construct: purified recombinant human Polθ-pol (comprising amino acid residues 1792–2590); made in house
# T1 sequence (O75417 1792-2590): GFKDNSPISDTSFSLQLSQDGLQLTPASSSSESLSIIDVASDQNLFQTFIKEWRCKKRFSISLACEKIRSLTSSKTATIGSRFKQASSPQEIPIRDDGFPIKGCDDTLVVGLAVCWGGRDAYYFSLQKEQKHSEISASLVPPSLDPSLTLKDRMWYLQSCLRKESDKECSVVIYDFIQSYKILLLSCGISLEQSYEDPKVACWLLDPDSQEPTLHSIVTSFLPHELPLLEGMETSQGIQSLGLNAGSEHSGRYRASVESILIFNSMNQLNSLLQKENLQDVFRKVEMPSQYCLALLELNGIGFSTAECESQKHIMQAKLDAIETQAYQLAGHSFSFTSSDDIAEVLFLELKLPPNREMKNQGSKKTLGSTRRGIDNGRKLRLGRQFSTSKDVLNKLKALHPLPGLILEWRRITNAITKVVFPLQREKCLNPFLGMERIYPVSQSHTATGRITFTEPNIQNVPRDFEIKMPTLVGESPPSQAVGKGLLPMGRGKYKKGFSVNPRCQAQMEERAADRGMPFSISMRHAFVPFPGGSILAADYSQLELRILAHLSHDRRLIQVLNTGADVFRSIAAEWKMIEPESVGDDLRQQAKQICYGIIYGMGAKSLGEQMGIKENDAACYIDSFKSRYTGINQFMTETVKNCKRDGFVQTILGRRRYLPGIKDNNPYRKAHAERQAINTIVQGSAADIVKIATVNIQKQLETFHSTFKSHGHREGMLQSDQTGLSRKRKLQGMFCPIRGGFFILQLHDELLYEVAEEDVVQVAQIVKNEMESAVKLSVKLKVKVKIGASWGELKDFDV
# Method: The following Cy5 fluorescence assay was used to measure the ability of compounds to inhibit Polθ-pol in vitro. The fluorescent based assay was performed as follows: 60 nM of the pre-annealed primer-template containing a 5’ Cy5 fluorophore conjugated template strand (RP486-Cy5), a downstream complementary oligo conjugated with a 3’ Iowa BlackReg Dark quencher (RP343BHQRQ) and a primer strand (RP469D) was mixed with 50 uM 2'-deoxyribonucleoside triphosphates (dNTPs), 0.1 mg/mL Bovine serum albumin (BSA), 0.01% NP-40, 10% glycerol, 1 mM dithiothreitol (DTT), 10 mM MgCl2, 25 mM TrisHCl pH 7.8 in the presence of 2.5% DMSO with or without various concentrations (7-point dilution series) of Polθ-pol small-molecule inhibitors at 37 °C in a volume of 40 μL. The reactions were initiated by the addition of 5 nM of purified recombinant human Polθ-pol (comprising amino acid residues 1792–2590). The reactions were terminated by the addition of 20 mM EDTA after 18 min, and the Cy5 fluorescence intensity was measured using a CLARIOstar (BMG Labtech) plate reader. Reactions were performed in triplicate and the % inhibition at each concentration of the respective compound of Formula I was based on the mean.
# DLD1 Parental cells = test: Clonogenic assay; type: cell-based; details: DLD1 Parental
# Method: (§1) Cells were plated on six or twelve or twenty-four well plates. In six well plate, 1000 cells/ well of BRCA2 -/-, BRCA1 -/-, PALB2 mut and 500 cells/ well of wildtype pair was plated; In twelve well plate, 600 cells/ well of BRCA2 -/-, BRCA1 -/-, PALB2 mut and 400 cells/ well of wildtype pair was plated; In twenty-four well plate, 500 cells/ well of BRCA2 -/-, BRCA1 -/-, PALB2 mut and 300 cells/ well of wildtype pair was plated. For MEFs, 300 cells per well in six-well plate were seeded. The medium was replaced every 2 days until the colonies were ready for staining in 10–12 days. For staining: Medium was removed from plates, and cells were rinsed with PBS. Fixation was carried out with—Water: Ethanol: Acetic acid (5:4:1) for 30 min followed by staining of colonies with 0.5% crystal violet in Water: Ethanol (3:2) for 2 h at room temperature. The plates were rinsed with water and left for drying overnight at room temperature. Colonies were then counted and IC50 was calculated using results from 3 or more independent experiments. Response curves are shown as mean colony formation +/- S.E.M.
# DLD1 BRCA2 -/- cells = test: Clonogenic assay; type: cell-based; details: for Average (colonies): DLD1 BRCA2 -/-
# Method: as §1
# Data are expressed as mean ± SEM from at least 3 independent experiments with triplicates for each condition unless stated otherwise. When conducting comparison between two groups, two-tailed unpaired t-test was used. Significance was assumed at p < 0.05. Asterisks in the figures indicate significance, ^∗p < 0.05, ^∗∗p < 0.01, ^∗∗∗p < 0.001. Combenefit® software version 2.021 was used to perform synergy analyses for drug combinations between RTx-161 and PARPi. GraphPad Prism 9 software was used to calculate IC50.
smiles,measurement,setting,value
"Cc1cccc(N(C)C(=O)[C@@H]2[C@H](O)CCN2c2nc(C)cc(C(F)(F)F)c2C#N)c1 [ART558, reference compound]",IC50,Polθ-pol,11.4 nM
same,Average (colonies),"DLD1 Parental cells; 0.1875 uM, block 1 of sheet",47.5
same,Average (colonies),"DLD1 Parental cells; 0.1875 uM, block 2 of sheet",42
same,Average (colonies),"DLD1 Parental cells; 0.1875 uM, block 3 of sheet",77
same,Average (colonies),"DLD1 Parental cells; 0.375 uM, block 1 of sheet",51
same,Average (colonies),"DLD1 Parental cells; 0.375 uM, block 2 of sheet",61
same,Average (colonies),"DLD1 Parental cells; 0.375 uM, block 3 of sheet",80
same,Average (colonies),"DLD1 Parental cells; 0.75 uM, block 1 of sheet",39.5
same,Average (colonies),"DLD1 Parental cells; 0.75 uM, block 2 of sheet",41.5
same,Average (colonies),"DLD1 Parental cells; 0.75 uM, block 3 of sheet",76.5
same,Average (colonies),"DLD1 Parental cells; 1.5 uM, block 1 of sheet",42.5
same,Average (colonies),"DLD1 Parental cells; 1.5 uM, block 2 of sheet",44.5
same,Average (colonies),"DLD1 Parental cells; 1.5 uM, block 3 of sheet",77.5
same,Average (colonies),"DLD1 Parental cells; 3 uM, block 1 of sheet",58.5
same,Average (colonies),"DLD1 Parental cells; 3 uM, block 2 of sheet",36.5
same,Average (colonies),"DLD1 Parental cells; 3 uM, block 3 of sheet",78.5
same,Average (colonies),"DLD1 Parental cells; 6 uM, block 1 of sheet",42.5
same,Average (colonies),"DLD1 Parental cells; 6 uM, block 2 of sheet",59
same,Average (colonies),"DLD1 Parental cells; 6 uM, block 3 of sheet",76.5
same,Average (colonies),"DLD1 Parental cells; 12 uM, block 2 of sheet",57.5
same,Average (colonies),"DLD1 Parental cells; 12 uM, block 3 of sheet",79
same,Average (colonies),"DLD1 BRCA2 -/- cells; 0.1875 uM, block 1 of sheet",21.5
same,Average (colonies),"DLD1 BRCA2 -/- cells; 0.1875 uM, block 2 of sheet",41.5
same,Average (colonies),"DLD1 BRCA2 -/- cells; 0.1875 uM, block 3 of sheet",18
same,Average (colonies),"DLD1 BRCA2 -/- cells; 0.375 uM, block 1 of sheet",24.5
same,Average (colonies),"DLD1 BRCA2 -/- cells; 0.375 uM, block 2 of sheet",37.5
same,Average (colonies),"DLD1 BRCA2 -/- cells; 0.375 uM, block 3 of sheet",18.5
same,Average (colonies),"DLD1 BRCA2 -/- cells; 0.75 uM, block 1 of sheet",10.5
same,Average (colonies),"DLD1 BRCA2 -/- cells; 0.75 uM, block 2 of sheet",31
same,Average (colonies),"DLD1 BRCA2 -/- cells; 0.75 uM, block 3 of sheet",18.5
same,Average (colonies),"DLD1 BRCA2 -/- cells; 1.5 uM, block 1 of sheet",15.5
same,Average (colonies),"DLD1 BRCA2 -/- cells; 1.5 uM, block 2 of sheet",30.5
same,Average (colonies),"DLD1 BRCA2 -/- cells; 1.5 uM, block 3 of sheet",20.5
same,Average (colonies),"DLD1 BRCA2 -/- cells; 3 uM, block 1 of sheet",14
same,Average (colonies),"DLD1 BRCA2 -/- cells; 3 uM, block 2 of sheet",22.5
same,Average (colonies),"DLD1 BRCA2 -/- cells; 3 uM, block 3 of sheet",15
same,Average (colonies),"DLD1 BRCA2 -/- cells; 6 uM, block 1 of sheet",6.5
same,Average (colonies),"DLD1 BRCA2 -/- cells; 6 uM, block 2 of sheet",28.5
same,Average (colonies),"DLD1 BRCA2 -/- cells; 6 uM, block 3 of sheet",8
same,Average (colonies),"DLD1 BRCA2 -/- cells; 12 uM, block 2 of sheet",11.5
same,Average (colonies),"DLD1 BRCA2 -/- cells; 12 uM, block 3 of sheet",6
same,IC50,"DLD1 BRCA2 -/- cells; Homo sapiens, DLD-1, DLD1 cells, label beside BRCA2-null curve, read-out: IC50 clonogenic survival",~2500 nM
same,potency in BRCA2-null cells compared with RTx-161,DLD1 BRCA2 -/- cells; clonogenic survival,slightly reduced potency
